Assay results from patent publication US20100137449A1, “SUBSTITUTED 1,3-CYCLOPENTADIONE MULTI-TARGET PROTEIN KINASE MODULATORS OF CANCER, ANGIOGENESIS AND THE INFLAMMATORY PATHWAYS ASSOCIATED THEREWITH” (METAPROTEOMICS, LLC, priority 2007, published 2010).

Tests used:
Assay in all cases: KinaseProfiler Assay
FGFR2(N549H)(h) = FGFR2(N549H)(h) (Homo sapiens, UniProt P21802, N549H)
Axl(h) = target: T1, Axl(h) (Homo sapiens, UniProt P30530)
T1 sequence (P30530 26-894): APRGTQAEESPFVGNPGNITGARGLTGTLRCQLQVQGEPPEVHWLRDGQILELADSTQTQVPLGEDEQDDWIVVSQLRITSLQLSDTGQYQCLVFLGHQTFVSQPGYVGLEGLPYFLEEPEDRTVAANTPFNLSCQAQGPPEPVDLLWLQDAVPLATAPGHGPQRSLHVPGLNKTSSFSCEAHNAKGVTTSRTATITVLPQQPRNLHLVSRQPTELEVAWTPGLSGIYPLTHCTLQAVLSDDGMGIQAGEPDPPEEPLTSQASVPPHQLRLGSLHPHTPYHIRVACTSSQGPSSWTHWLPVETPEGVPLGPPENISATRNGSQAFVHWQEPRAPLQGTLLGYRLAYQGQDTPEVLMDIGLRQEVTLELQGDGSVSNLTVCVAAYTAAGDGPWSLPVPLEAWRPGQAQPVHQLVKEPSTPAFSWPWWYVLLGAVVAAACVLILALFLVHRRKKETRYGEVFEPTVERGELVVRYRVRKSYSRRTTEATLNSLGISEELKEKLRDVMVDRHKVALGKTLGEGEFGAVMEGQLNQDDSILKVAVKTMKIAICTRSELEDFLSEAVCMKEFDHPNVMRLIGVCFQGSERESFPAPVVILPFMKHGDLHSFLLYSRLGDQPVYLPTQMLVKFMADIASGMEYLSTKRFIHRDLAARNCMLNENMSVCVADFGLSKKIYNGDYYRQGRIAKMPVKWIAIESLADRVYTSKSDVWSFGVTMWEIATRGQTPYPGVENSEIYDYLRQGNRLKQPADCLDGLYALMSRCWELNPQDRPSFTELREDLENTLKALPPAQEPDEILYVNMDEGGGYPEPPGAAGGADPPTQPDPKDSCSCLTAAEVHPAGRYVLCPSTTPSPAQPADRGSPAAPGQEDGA

ALK(h) = ALK(h) (Homo sapiens, UniProt Q9UM73)
Sequence of ALK(h) (Q9UM73 19-1620): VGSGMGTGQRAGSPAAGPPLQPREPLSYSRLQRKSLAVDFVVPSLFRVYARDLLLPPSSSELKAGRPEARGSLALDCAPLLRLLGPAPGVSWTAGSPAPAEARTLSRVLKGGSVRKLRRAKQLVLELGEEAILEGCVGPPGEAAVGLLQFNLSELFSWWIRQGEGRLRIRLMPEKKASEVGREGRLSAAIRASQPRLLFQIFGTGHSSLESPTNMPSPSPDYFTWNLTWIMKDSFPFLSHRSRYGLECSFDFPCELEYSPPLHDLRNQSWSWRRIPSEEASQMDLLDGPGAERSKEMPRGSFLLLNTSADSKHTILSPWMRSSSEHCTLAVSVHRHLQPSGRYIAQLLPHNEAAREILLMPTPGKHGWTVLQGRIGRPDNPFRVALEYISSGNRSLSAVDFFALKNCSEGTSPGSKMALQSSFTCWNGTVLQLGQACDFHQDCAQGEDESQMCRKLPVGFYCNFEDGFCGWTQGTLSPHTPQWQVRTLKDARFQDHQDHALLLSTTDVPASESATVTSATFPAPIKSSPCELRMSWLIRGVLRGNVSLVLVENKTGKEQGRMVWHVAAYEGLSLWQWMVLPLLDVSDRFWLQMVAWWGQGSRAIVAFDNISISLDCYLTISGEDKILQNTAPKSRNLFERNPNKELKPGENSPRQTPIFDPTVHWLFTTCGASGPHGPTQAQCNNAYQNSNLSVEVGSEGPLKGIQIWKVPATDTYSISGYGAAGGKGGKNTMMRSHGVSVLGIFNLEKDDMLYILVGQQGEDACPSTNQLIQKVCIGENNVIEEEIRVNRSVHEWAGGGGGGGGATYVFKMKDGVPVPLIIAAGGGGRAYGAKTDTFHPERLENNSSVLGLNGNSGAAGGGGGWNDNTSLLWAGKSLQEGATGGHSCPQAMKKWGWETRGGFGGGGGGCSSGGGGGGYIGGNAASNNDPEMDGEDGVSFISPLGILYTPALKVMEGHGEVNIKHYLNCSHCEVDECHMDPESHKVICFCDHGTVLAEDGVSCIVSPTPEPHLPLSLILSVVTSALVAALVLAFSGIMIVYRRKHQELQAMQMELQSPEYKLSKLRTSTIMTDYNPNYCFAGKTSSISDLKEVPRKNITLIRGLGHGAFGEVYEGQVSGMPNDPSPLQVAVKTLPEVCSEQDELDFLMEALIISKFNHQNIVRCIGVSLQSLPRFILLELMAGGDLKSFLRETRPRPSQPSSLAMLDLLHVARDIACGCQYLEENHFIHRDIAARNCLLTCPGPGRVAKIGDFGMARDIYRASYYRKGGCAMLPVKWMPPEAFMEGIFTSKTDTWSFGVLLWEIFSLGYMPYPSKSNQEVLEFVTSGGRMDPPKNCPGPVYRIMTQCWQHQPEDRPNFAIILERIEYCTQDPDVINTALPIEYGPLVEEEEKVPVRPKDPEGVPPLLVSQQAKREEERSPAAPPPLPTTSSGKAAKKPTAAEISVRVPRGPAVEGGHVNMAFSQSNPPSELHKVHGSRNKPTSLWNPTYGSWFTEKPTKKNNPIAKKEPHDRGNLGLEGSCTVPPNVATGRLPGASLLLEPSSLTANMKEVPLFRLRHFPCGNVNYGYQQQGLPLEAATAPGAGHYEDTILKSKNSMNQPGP

Tie2(Y897S)(h) = Tie2(Y897S)(h) (Homo sapiens, UniProt Q02763, Y897S)
Sequence of Tie2(Y897S)(h) (Q02763 23-1124 Y897S): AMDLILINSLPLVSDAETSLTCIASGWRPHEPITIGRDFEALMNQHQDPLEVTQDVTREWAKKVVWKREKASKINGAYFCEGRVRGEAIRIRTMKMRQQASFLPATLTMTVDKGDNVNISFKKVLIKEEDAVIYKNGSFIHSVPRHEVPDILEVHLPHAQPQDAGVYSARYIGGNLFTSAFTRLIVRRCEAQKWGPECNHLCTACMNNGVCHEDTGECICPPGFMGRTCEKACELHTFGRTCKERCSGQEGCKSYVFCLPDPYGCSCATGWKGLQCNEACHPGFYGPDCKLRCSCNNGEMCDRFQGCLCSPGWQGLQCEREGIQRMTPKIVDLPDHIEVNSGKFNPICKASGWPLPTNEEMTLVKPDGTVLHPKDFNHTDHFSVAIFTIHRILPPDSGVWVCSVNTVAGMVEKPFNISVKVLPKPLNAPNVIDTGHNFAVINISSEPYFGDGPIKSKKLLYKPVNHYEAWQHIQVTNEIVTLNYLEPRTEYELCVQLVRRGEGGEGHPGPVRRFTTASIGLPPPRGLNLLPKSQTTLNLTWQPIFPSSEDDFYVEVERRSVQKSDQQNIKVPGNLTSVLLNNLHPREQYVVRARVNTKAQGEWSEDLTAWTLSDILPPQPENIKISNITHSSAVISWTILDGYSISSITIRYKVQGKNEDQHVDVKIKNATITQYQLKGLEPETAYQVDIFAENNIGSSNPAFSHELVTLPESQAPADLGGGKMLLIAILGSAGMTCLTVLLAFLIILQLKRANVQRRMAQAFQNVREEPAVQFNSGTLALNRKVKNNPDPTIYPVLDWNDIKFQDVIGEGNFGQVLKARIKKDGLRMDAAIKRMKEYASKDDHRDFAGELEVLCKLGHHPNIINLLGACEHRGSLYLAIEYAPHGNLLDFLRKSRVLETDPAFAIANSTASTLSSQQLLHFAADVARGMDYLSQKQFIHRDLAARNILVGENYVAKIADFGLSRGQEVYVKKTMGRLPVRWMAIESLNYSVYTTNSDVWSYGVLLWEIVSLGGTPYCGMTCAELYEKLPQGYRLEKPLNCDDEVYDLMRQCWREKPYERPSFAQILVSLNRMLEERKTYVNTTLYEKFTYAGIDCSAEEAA

Abl(M351T)(h) = Abl(M351T)(h) (Homo sapiens, UniProt P00519, M351T)
Pim-1(h) = Pim-1(h) (Homo sapiens, UniProt P11309)
Sequence of Pim-1(h) (P11309 whole entry): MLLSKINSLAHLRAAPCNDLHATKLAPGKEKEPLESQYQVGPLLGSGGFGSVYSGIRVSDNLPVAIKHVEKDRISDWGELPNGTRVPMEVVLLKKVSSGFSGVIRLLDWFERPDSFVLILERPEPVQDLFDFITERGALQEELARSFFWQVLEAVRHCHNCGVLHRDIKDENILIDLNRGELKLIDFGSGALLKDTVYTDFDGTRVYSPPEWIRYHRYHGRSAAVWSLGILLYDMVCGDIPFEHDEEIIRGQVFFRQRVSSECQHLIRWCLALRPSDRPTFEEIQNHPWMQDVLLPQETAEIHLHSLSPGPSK

IRAK1(h) = IRAK1(h) (Homo sapiens, UniProt P51617)
Sequence of IRAK1(h) (P51617 whole entry): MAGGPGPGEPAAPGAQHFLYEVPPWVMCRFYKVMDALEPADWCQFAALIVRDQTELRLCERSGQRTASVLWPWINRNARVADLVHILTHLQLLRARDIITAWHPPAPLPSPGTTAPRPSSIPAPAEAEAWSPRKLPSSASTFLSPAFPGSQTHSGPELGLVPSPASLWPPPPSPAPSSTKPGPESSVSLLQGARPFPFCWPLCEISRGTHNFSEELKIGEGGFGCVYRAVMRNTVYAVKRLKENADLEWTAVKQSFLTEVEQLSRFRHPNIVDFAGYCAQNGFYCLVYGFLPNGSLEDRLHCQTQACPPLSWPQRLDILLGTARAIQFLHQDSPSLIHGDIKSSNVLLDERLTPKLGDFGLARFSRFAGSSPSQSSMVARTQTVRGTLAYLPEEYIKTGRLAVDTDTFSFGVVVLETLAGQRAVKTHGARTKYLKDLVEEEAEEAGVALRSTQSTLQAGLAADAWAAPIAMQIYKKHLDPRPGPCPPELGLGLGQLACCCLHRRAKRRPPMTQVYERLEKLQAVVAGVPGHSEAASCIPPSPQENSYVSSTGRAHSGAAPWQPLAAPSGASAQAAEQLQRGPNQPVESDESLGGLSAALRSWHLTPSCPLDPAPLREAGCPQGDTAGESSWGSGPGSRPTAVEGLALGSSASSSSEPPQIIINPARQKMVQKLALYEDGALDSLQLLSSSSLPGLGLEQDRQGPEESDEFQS

Aurora-A(h) = target: T2, Aurora-A(h) (Homo sapiens, UniProt O14965)
T2 sequence (O14965 1-403): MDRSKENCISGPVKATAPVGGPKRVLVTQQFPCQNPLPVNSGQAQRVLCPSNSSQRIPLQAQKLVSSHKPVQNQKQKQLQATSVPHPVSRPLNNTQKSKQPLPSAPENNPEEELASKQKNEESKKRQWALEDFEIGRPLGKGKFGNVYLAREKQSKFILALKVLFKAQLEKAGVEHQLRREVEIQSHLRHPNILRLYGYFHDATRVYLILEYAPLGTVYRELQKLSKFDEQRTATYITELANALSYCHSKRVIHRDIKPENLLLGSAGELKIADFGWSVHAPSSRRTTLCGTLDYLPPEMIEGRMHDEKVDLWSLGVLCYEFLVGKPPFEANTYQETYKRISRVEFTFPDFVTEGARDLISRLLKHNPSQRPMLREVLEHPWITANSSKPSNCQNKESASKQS

Txk(h) = target: T3, Txk(h) (Homo sapiens, UniProt P42681)
T3 sequence (P42681 1-527): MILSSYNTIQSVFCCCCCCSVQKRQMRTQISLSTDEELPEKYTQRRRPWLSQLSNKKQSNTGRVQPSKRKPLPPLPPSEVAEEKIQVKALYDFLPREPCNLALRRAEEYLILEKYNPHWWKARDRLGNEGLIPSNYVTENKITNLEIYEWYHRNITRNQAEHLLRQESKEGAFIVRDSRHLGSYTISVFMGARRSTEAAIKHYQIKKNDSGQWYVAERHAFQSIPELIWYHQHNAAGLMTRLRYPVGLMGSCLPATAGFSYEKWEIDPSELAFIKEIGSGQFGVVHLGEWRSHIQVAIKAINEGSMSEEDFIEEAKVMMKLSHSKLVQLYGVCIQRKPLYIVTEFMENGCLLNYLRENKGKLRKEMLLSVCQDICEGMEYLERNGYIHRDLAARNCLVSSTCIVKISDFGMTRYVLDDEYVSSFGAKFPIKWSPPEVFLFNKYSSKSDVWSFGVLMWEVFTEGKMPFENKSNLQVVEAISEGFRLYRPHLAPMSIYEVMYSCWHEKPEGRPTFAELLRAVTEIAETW

Sequence of FGFR2(N549H)(h) (P21802 22-821 N549H): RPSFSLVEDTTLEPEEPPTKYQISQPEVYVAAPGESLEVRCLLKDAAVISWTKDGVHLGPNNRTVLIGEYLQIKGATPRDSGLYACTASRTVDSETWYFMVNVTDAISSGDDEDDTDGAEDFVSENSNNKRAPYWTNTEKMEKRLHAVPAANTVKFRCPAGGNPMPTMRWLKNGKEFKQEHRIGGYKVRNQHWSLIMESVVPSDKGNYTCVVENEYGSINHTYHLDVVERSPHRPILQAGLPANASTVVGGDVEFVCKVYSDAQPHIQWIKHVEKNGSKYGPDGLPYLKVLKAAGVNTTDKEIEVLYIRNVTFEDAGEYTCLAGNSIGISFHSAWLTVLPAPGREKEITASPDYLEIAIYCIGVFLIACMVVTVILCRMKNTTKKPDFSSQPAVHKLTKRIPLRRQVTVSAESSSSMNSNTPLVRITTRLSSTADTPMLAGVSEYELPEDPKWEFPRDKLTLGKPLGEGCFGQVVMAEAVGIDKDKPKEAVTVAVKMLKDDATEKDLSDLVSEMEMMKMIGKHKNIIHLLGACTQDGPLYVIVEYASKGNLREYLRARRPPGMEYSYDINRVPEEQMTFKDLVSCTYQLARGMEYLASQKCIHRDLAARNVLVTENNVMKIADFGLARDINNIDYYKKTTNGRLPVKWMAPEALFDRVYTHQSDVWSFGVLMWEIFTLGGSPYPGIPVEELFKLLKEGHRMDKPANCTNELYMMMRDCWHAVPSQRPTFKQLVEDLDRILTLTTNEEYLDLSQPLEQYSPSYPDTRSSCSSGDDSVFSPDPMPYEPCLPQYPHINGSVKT

CC(C)CCC(=O)[C@]1(O)C(O)=C(C(=O)C(C)C)C(=O)[C@H]1CCC(C)C [TH2, tetrahydroiso-cohumulone]
kinase inhibition (FGFR2(N549H)(h); 1 μg/ml): 110% of control
kinase inhibition (FGFR2(N549H)(h); 5 μg/ml): 102% of control
kinase inhibition (FGFR2(N549H)(h); 25 μg/ml): 103% of control
kinase inhibition (FGFR2(N549H)(h); 50 μg/ml): 103% of control
kinase inhibition (FGFR2(N549H)(h); 100 μg/ml): 82% of control
kinase inhibition (Axl(h); 1 μg/ml): 106% of control
kinase inhibition (Axl(h); 5 μg/ml): 110% of control
kinase inhibition (Axl(h); 25 μg/ml): 100% of control
kinase inhibition (Axl(h); 50 μg/ml): 86% of control
kinase inhibition (Axl(h); 100 μg/ml): 65% of control
kinase inhibition (ALK(h); 1 μg/ml): 80% of control
kinase inhibition (ALK(h); 5 μg/ml): 59% of control
kinase inhibition (ALK(h); 25 μg/ml): 21% of control
kinase inhibition (ALK(h); 50 μg/ml): 21% of control
kinase inhibition (ALK(h); 100 μg/ml): 23% of control
kinase inhibition (Tie2(Y897S)(h); 1 μg/ml): 82% of control
kinase inhibition (Tie2(Y897S)(h); 5 μg/ml): 46% of control
kinase inhibition (Tie2(Y897S)(h); 25 μg/ml): 27% of control
kinase inhibition (Tie2(Y897S)(h); 50 μg/ml): 35% of control
kinase inhibition (Tie2(Y897S)(h); 100 μg/ml): 32% of control
kinase inhibition (Abl(M351T)(h); 1 μg/ml): 92% of control
kinase inhibition (Abl(M351T)(h); 5 μg/ml): 95% of control
kinase inhibition (Abl(M351T)(h); 25 μg/ml): 89% of control
kinase inhibition (Abl(M351T)(h); 50 μg/ml): 75% of control
kinase inhibition (Abl(M351T)(h); 100 μg/ml): 56% of control
kinase inhibition (Pim-1(h); 1 μg/ml): 86% of control
kinase inhibition (Pim-1(h); 5 μg/ml): 100% of control
kinase inhibition (Pim-1(h); 25 μg/ml): 87% of control
kinase inhibition (Pim-1(h); 50 μg/ml): 84% of control
kinase inhibition (Pim-1(h); 100 μg/ml): 55% of control
kinase inhibition (IRAK1(h); 1 μg/ml): 99% of control
kinase inhibition (IRAK1(h); 5 μg/ml): 112% of control
kinase inhibition (IRAK1(h); 25 μg/ml): 37% of control
kinase inhibition (IRAK1(h); 50 μg/ml): 39% of control
kinase inhibition (IRAK1(h); 100 μg/ml): 39% of control
kinase inhibition (Aurora-A(h); 1 μg/ml): 65% of control
kinase inhibition (Aurora-A(h); 5 μg/ml): 24% of control
kinase inhibition (Aurora-A(h); 25 μg/ml): 71% of control
kinase inhibition (Aurora-A(h); 50 μg/ml): 57% of control
kinase inhibition (Aurora-A(h); 100 μg/ml): 54% of control
kinase inhibition (Txk(h); 1 μg/ml): 114% of control
kinase inhibition (Txk(h); 5 μg/ml): 121% of control
kinase inhibition (Txk(h); 25 μg/ml): 121% of control
kinase inhibition (Txk(h); 50 μg/ml): 110% of control
kinase inhibition (Txk(h); 100 μg/ml): 107% of control
